Laboratory results reported in patent publication US20240262833A1, “FUSED HETEROCYCLIC DERIVATIVES AS NEGATIVE ALLOSTERIC MODULATORS OF MGLU7 RECEPTOR” (Addex Pharma S.A., priority 2021, published 2024).

Columns and labels:
[1] = biological target: T1, human metabotropic glutamate 7 receptor (hmGlu7) (Homo sapiens, UniProt Q14831); experiment: mGlu7 assay on HEK-expressing human mGlu7: fluorescent cell based Ca2+ mobilization assay (FLIPR), inhibition of EC80 L-AP4 response; settings: HEK-293 cells expressing hmGlu7; EC80 L-AP4 stimulation; mean of at least three independent experiments in duplicate; read-out: Ca2+ Flux (mean IC50)
T1 construct: expressed in transfected cells
T1 sequence (Q14831 35-922 isoform Q14831-2): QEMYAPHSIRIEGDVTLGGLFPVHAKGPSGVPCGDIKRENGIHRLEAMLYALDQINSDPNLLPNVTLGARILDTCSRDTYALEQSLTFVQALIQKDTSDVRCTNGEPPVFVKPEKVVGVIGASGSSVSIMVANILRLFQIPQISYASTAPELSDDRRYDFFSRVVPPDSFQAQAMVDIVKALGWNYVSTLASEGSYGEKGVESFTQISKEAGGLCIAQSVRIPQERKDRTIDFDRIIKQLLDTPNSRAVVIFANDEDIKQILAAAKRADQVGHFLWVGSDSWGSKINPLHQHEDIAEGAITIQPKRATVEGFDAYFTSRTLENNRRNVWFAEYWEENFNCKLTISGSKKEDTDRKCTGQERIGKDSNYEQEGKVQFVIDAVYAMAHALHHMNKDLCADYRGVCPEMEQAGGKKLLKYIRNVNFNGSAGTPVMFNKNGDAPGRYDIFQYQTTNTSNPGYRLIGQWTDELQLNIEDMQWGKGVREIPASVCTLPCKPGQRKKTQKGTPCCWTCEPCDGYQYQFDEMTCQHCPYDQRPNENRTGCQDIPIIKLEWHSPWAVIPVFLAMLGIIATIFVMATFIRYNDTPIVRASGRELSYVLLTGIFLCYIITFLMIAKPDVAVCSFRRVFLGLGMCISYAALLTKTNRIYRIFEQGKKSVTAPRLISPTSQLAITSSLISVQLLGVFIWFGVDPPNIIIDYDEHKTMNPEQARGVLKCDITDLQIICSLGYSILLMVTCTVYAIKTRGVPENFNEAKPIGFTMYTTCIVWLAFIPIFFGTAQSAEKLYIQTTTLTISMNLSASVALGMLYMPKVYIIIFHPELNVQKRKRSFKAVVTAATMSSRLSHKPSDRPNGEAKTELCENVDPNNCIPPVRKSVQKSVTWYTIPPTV
Summary of the method: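 HEK293 cells stably expressing hmGlu7 with a calcium-redirecting G protein were Fluo4-AM-loaded and assayed at pH 7.4 in HEPES buffer. Compounds were monitored for 180 s for agonism, then cells were challenged with EC80 L-AP4 for 110 s. IC50 was obtained from four-parameter fits, as the mean of ≥3 experiments run in duplicate.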

Compound	IC50 [1] [µM]	melting point [°C]
COc1cccc(-n2c(C)c3cnn(-c4cc(OC)ccn4)c(=O)c3c2C)c1 [1-123]	1 to 10	95 to 97
CCOC(=O)c1cccc(-n2c(C)c3cnn(-c4ccccn4)c(=O)c3c2C)c1 [1-133]	0.1 to 1	86 to 90
COc1cccc(-n2c(C)c3cnn(-c4ccc(CN)cc4)c(=O)c3c2C)c1 [1-88, 2-(4-(Aminomethyl)phenyl)-6-(3-methoxyphenyl)-5,7-dimethyl-2,6-dihydro-1H-pyrrolo[3,4-d]pyridazin-1-one]	0.1 to 1	145 to 155
COc1cccc(-n2c(C)c3cnn(-c4ccccc4)c(=O)c3c2C)c1 [1-26, 6-(3-Methoxyphenyl)-5,7-dimethyl-2-phenyl-2,6-dihydro-1H-pyrrolo[3,4-d]pyridazin-1-one]	< 0.1	213 to 215
CNCc1ccc(-n2ncc3c(C)n(-c4cccc(OC)c4)c(C)c3c2=O)cc1 [1-109, 6-(3-Methoxyphenyl)-5,7-dimethyl-2-(4-((methylamino)methyl)phenyl)-2,6-dihydro-1H-pyrrolo[3,4-d]pyridazin-1-one]	0.1 to 1	150 to 154
CC(=O)c1ccc(-n2ncc3c(C)n(-c4cccc(N5CCC5)c4)c(C)c3c2=O)cc1 [1-171]	< 0.1	
COc1cccc(-n2c(C)c3cnn(-c4cccnc4)c(=O)c3c2C)c1 [1-41]	0.1 to 1	
Cc1ccc(-n2ncc3c(C)n(-c4ccccc4)c(C)c3c2=O)cn1 [1-50]	0.1 to 1	
Cc1c2cnn(-c3ccc(N4CCOCC4)cc3)c(=O)c2c(C)n1-c1ccccc1 [1-93]	0.1 to 1	
Cc1c(OC2CC2)cccc1-n1c(C)c2cnn(-c3ccc(N4CCOCC4)cc3)c(=O)c2c1C [1-221]	1 to 10	
Cc1c2cnn(-c3ccccn3)c(=O)c2c(C)n1-c1ccccc1 [1-22]	1 to 10	
Cc1c2cnn(-c3ncccc3F)c(=O)c2c(C)n1-c1cc(F)cc(N2CCC2)c1 [1-209]	< 0.1	
Cc1c2cnn(-c3ccc(N4CCOCC4)cc3)c(=O)c2c(C)n1-c1cccc(N2CCC2)c1 [1-219]	0.1 to 1	
Cc1ccc(-n2c(C)c3cnn(-c4ccccc4)c(=O)c3c2C)c(C)c1 [1-32]	0.1 to 1	
CC(=O)NCc1ccc(-n2ncc3c(C)n(-c4ccccc4)c(C)c3c2=O)cc1 [1-104]	0.1 to 1	
Cc1c2cnn(-c3ccccn3)c(=O)c2c(C)n1-c1cccc(C#N)c1 [1-54]	1 to 10	
COc1ccccc1-n1c(C)c2cnn(-c3ccccn3)c(=O)c2c1C [1-193]	1 to 10	
COc1cnc(-n2ncc3c(C)n(-c4cccc(N5CCC5)c4)c(C)c3c2=O)nc1 [1-224]	< 0.1	
Cc1c2cnn(-c3ccccc3F)c(=O)c2c(C)n1-c1cccc(N2CCC2)c1 [1-177]	< 0.1	
CCOc1cccc(-n2ncc3c(C)n(-c4cccc(OC)c4)c(C)c3c2=O)c1 [1-144]	< 0.1	
Cc1c2cnn(-c3cccc(F)c3)c(=O)c2c(C)n1-c1ccccc1 [1-10]	0.1 to 1	
Cc1c2cnn(-c3cccc(C#N)c3)c(=O)c2c(C)n1-c1ccccc1 [1-16]	0.1 to 1	
COc1cccc(-n2c(C)c3cnn(-c4ccc(CNC(C)=O)cc4)c(=O)c3c2C)c1 [1-65]	< 0.1	
Cc1cc(-n2ncc3c(C)n(-c4cccc(N5CCC5)c4)c(C)c3c2=O)ccn1 [1-182]	< 0.1	
COc1cccc(-n2c(C)c3cnn(-c4cccc(C#N)c4)c(=O)c3c2C)c1 [1-124]	0.1 to 1	
Cc1c(OC2CC2)cccc1-n1c(C)c2cnn(-c3ncccc3F)c(=O)c2c1C [1-211]	< 0.1	

Compound	IC50 [1] [µM]	melting point [°C]
Cc1c2cnn(-c3ccc(C(=O)CNC(=O)OC(C)(C)C)cc3)c(=O)c2c(C)n1-c1cccc(N2CCC2)c1 [1-184]	0.1 to 1	
Cc1c2cnn(-c3ccc(CCO)cc3)c(=O)c2c(C)n1-c1cccc(N2CCC2)c1 [1-169, 6-(3-(Azetidin-1-yl)phenyl)-2-(4-(2-hydroxyethyl)phenyl)-5,7-dimethyl-2,6-dihydro-1H-pyrrolo[3,4-d]pyridazin-1-one]	< 0.1	
CCc1c2cnn(-c3ccccn3)c(=O)c2c(C)n1-c1cccc(OC)c1 [1-140]	1 to 10	
COc1cccc(-n2c(C)c3cnn(-c4cccc(C(C)=O)c4)c(=O)c3c2C)c1 [1-147]	0.1 to 1	
COc1cccc(-n2c(C)c3cnn(-c4ccc(OC)c(OC)c4)c(=O)c3c2C)c1 [1-117]	0.1 to 1	
COc1cccc(-n2c(C)c3cnn(-c4cccc(CNC(C)=O)c4)c(=O)c3c2C)c1 [1-115]	0.1 to 1	
Cc1c2cnn(-c3ccccn3)c(=O)c2c(C)n1-c1cccc(N2CCOCC2)c1 [1-90]	1 to 10	
Cc1ccc(-n2ncc3c(C)n(-c4ccccc4)c(C)c3c2=O)cc1 [1-15]	< 0.1	
COc1cc(-n2c(C)c3cnn(-c4ccccn4)c(=O)c3c2C)ccn1 [1-62]	1 to 10	
Cc1c2cnn(-c3ccccn3)c(=O)c2c(C)n1-c1ccc(F)c(N2CCC2)c1 [1-192]	0.1 to 1	
Cc1ccc(-n2ncc3c(C)n(-c4cccc(N5CCC5)c4)c(C)c3c2=O)nc1 [1-155]	< 0.1	
Cc1c2cnn(-c3ccc(N4CCCC4)cc3)c(=O)c2c(C)n1-c1cccc(N2CCC2)c1 [1-168, 6-(3-(Azetidin-1-yl)phenyl)-5,7-dimethyl-2-(4-(pyrrolidin-1-yl)phenyl)-2,6-dihydro-1H-pyrrolo[3,4-d]pyridazin-1-one]	0.1 to 1	
Cc1c2cnn(C34CC(C3)C4)c(=O)c2c(C)n1-c1cccc(N2CCC2)c1 [1-222]	0.1 to 1	
Cc1c2cnn(-c3ccc(F)cc3)c(=O)c2c(C)n1-c1ccccc1 [1-11]	< 0.1	
Cc1c2cnn(-c3ccccc3)c(=O)c2c(C)n1-c1ccccc1F [1-29]	0.1 to 1	
COCc1cccc(-n2c(C)c3cnn(-c4ccccc4)c(=O)c3c2C)c1 [1-108]	0.1 to 1	
Cc1c2cnn(-c3ccccc3)c(=O)c2c(C)n1-c1cccc(N2CCCC2=O)c1 [1-49]	0.1 to 1	
Cc1cccc(-n2c(C)c3cnn(-c4cccnc4)c(=O)c3c2C)c1 [1-40]	0.1 to 1	
Cc1c2cnn(-c3ccccn3)c(=O)c2c(C)n1-c1cccc(OC2CC2)c1F [1-235]	0.1 to 1	
COc1ccc(-n2c(C)c3cnn(-c4ccc(OC)cc4)c(=O)c3c2C)cc1 [1-103]	0.1 to 1	
COC(=O)c1ccc(-n2ncc3c(C)n(-c4cccc(OC)c4)c(C)c3c2=O)cc1OC [1-105]	0.1 to 1	
Cc1ccc(-n2c(C)c3cnn(-c4ccccn4)c(=O)c3c2C)cc1 [1-48]	0.1 to 1	
Cc1cccc(-n2ncc3c(C)n(-c4cccc(N5CCC5)c4)c(C)c3c2=O)n1 [1-154]	0.1 to 1	
Cc1ccc(-n2c(C)c3cnn(-c4ccccc4)c(=O)c3c2C)cc1 [1-1]	< 0.1	
COc1ccc(-n2c(C)c3cnn(-c4ccccn4)c(=O)c3c2C)cc1 [1-47]	0.1 to 1	
Cc1c2cnn(-c3ccc(CC(N)=O)cc3)c(=O)c2c(C)n1-c1cccc(N2CCC2)c1 [1-185]	< 0.1	

Compound	IC50 [1] [µM]	melting point [°C]
Cc1c2cnn(-c3ncccn3)c(=O)c2c(C)n1-c1cccc2c1ccn2C1CC1 [1-198]	< 0.1	
Cc1cccc(-n2c(C)c3cnn(-c4ccccc4)c(=O)c3c2C)c1 [1-6]	< 0.1	
COc1ccccc1-n1ncc2c(C)n(-c3cccc(N4CCC4)c3)c(C)c2c1=O [1-176]	0.1 to 1	
COc1cccc(-n2c(C)c3cnn(-c4cccc(C(N)=O)c4)c(=O)c3c2C)c1 [1-73]	0.1 to 1	
Cc1c2cnn(-c3ccccn3)c(=O)c2c(C)n1-c1cccc(N2CCCC2)c1 [1-59]	< 0.1	
Cc1c2cnn(-c3ccccn3)c(=O)c2c(C)n1-c1cccc(-n2cccc2)c1 [1-142]	< 0.1	
Cc1c2cnn(-c3ccc(N4CCNCC4)cc3)c(=O)c2c(C)n1-c1cccc(N2CCC2)c1 [1-174]	< 0.1	
Cc1c(OC2CC2)cccc1-n1c(C)c2cnn(-c3ncc(F)cn3)c(=O)c2c1C [1-212]	< 0.1	
Cc1c(O)cccc1-n1c(C)c2cnn(-c3ccc(N4CCOCC4)cc3)c(=O)c2c1C [1-220]	1 to 10	
Cc1c2cnn(-c3ccc(N4CCNC(=O)C4)cc3)c(=O)c2c(C)n1-c1cccc(N2CCC2)c1 [1-178]	< 0.1	
COc1ccc(-n2c(C)c3cnn(-c4ncccn4)c(=O)c3c2C)cn1 [1-241]	1 to 10	
Cc1ccc(-n2c(C)c3cnn(-c4ccccn4)c(=O)c3c2C)c(C)c1 [1-201]	0.1 to 1	
COc1ccc(-n2c(C)c3cnn(-c4cccc(C#N)c4)c(=O)c3c2C)cc1 [1-125]	0.1 to 1	
COc1ccc(-n2ncc3c(C)n(-c4ccccc4)c(C)c3c2=O)cc1 [1-13, 2-(4-Methoxyphenyl)-5,7-dimethyl-6-phenyl-2,6-dihydro-1H-pyrrolo[3,4-d]pyridazin-1-one]	0.1 to 1	
COc1cccc(-n2c(C)c3cnn(-c4ccc(CCCO)cc4)c(=O)c3c2C)c1 [1-118]	< 0.1	
COc1cc(-n2c(C)c3cnn(-c4ccccn4)c(=O)c3c2C)ccc1C [1-79]	0.1 to 1	
Cc1c2cnn(-c3ccccn3)c(=O)c2c(C)n1-c1cccc(C(F)(F)F)c1 [1-53]	0.1 to 1	
Cc1cccnc1-n1ncc2c(C)n(-c3cccc(N4CCC4)c3)c(C)c2c1=O [1-159]	0.1 to 1	
Cc1c2cnn(-c3ccc(CO)cc3)c(=O)c2c(C)n1-c1ccccc1 [1-92]	0.1 to 1	
Cc1cc(-n2ncc3c(C)n(-c4cccc(N5CCC5)c4)c(C)c3c2=O)cc(C)n1 [1-165]	< 0.1	
COc1cccc(-n2c(C)c3cnn(-c4ccc(C)cn4)c(=O)c3c2C)c1 [1-172]	0.1 to 1	
CNC(=O)c1ccc(-n2ncc3c(C)n(-c4cccc(OC)c4)c(C)c3c2=O)cc1 [1-113]	0.1 to 1	
Cc1ccnc(-n2ncc3c(C)n(-c4cccc(N5CCC5)c4)c(C)c3c2=O)c1 [1-161]	< 0.1	
COc1cccc(-n2c(C)c3cnn(-c4ccc(-c5ccccc5)cc4)c(=O)c3c2C)c1 [1-71]	0.1 to 1	
Cc1c2cnn(-c3ccccn3)c(=O)c2c(C)n1-c1cc(F)cc(N2CCC2)c1 [1-195]	< 0.1	
COc1ccc(-n2ncc3c(C)n(-c4ccccn4)c(C)c3c2=O)cc1 [1-81]	1 to 10	
